Measurements from paper PMC8466755, “GPCR Pharmacological Profiling of Aaptamine from the Philippine Sponge Stylissa sp. Extends Its Therapeutic Potential for Noncommunicable Diseases” (Molecules, 2021).

Columns and labels:
SSTR1 = SSTR1 (Homo sapiens, UniProt P30872); assay: PathHunter β-arrestin primary screen, antagonist mode (potentiator hit); type: cell-based; conditions: control agonist at EC80, negative inhibition = potentiation, read-out: % Activation or inhibition, primary screen
Description: (§1) Aaptamine (20 µM) was profiled in gpcrMAX panel biosensor assays (in agonist and antagonist modes) against a panel of 168 GPCRs. The assay was performed by DiscoverX Corporation (Fremont, CA) using PathHunter β -arrestin enzyme fragment complementation (EFC) technology, in a similar way to that described elsewhere. The PathHunter cell lines were taken from freezer stocks according to standard procedures. A total of 20 µL of cells were seeded into white 384-well plates and incubated at 37 °C for the appropriate time prior to testing.
(§2) For antagonist determination, PathHunter cells were preincubated with aaptamine followed by the addition of an agonist. In this assay format, the standard agonist was added at an EC80 concentration. To the plate that contained the cells, 5 µL of the 5X sample was added and incubated for 30 min at 37 °C or room temperature. After the incubation period, 5 µL of the 6X EC80 agonist in an assay buffer was added to the cells and incubated for additional 90 or 180 min at 37 °C or room temperature.

CXCR3 [1] = molecular target: T1, CXCR3 (Homo sapiens, UniProt P49682); assay: as above; type: cell-based; conditions: control agonist at EC80, negative inhibition = potentiation, read-out: Primary Screen Maximal Response, % Inhibition or Activation
T1 sequence (P49682 1-368): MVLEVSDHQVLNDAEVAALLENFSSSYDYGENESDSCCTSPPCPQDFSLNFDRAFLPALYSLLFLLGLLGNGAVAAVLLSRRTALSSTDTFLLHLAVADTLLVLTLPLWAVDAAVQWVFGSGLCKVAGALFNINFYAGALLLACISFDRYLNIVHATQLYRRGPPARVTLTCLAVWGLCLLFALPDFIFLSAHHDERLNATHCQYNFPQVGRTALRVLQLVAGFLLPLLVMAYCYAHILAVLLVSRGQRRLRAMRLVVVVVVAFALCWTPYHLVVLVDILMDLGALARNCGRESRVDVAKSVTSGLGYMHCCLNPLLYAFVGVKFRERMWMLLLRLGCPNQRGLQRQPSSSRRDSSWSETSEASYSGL
Description: as §1, §2

OPRK1 = OPRK1 (Homo sapiens, UniProt P41145); assay: as above; type: cell-based; conditions: control agonist at EC80, negative inhibition = potentiation, read-out: % Activation or inhibition, primary screen
Description: as §1, §2

ADRB2 = ADRB2 (Homo sapiens, UniProt P07550); assay: PathHunter β-arrestin assay, antagonist mode; type: cell-based
Description: The assay was performed by DiscoverX Corporation (Fremont, CA) using PathHunter β -arrestin enzyme fragment complementation (EFC) technology, in a similar way to that described elsewhere [35, 36]. The PathHunter cell lines were taken from freezer stocks according to standard procedures. A total of 20 µL of cells were seeded into white 384-well plates and incubated at 37 °C for the appropriate time prior to testing.

[2] = tested on: pdr1 Δ pdr3 Δ S. cerevisiae; assay: Yeast growth inhibition assay, double deletion strain; conditions: up to 50 µM, 24 h, PDR-attenuated strain
Description: The yeast S. cerevisiae (BY4741) cell culture was prepared by inoculating the microorganism in a 250 mL Erlenmeyer flask containing 50 mL YPD + HEPES medium, followed by incubation at 30 °C for 24–48 h. The assay was performed in a 96-well format. Each well except for the blank contained 100 μL of cell suspension with a final cell density of 5 × 10^4 cells/mL. […] The absorbance was read after a 24 h incubation. […] Nystatin was used as the positive control and DMSO served as the negative control. Each treatment was done in triplicate.

CCR3 = molecular target: T2, CCR3 (Homo sapiens, UniProt P51677); assay: PathHunter β-arrestin assay, positive allosteric modulation (PAM) mode; type: cell-based; conditions: control agonist at EC20
T2 sequence (P51677 1-355): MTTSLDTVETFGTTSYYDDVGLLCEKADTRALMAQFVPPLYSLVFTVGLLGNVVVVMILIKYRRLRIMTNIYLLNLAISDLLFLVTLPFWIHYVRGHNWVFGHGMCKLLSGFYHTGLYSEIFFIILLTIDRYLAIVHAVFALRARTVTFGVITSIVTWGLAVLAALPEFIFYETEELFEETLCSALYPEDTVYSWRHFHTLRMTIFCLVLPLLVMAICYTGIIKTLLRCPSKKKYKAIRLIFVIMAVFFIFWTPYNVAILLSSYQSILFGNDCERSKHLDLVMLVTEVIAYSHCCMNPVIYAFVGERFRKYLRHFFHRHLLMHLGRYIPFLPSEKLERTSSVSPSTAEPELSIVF
Description: (§3) Hit validation was performed by subjecting the aaptamine to an agonist, antagonist, and positive allosteric modulation (PAM) secondary screen utilizing thirteen GPCR biosensor assays (Arrestin) against the following targets: ADRA2A, ADRA2C, ADRB2, CCR1, CCR3, CXCR3, CXCR7, DRD2L, DRD2S, DRD4, HTR1E, OPRK1, and SSTR1. The assays were performed at 10-point concentrations using three-fold serial dilutions in duplicate. For all the assay formats, the final assay vehicle concentration was 1%.
(§4) For PAM assays, the cells were preincubated with the sample followed by agonist induction at the EC20 concentration. To the cells, 5 µL of 5X sample was added and incubated for 30 min at 37 °C or room temperature. Following the incubation period, 5 µL of the 6X EC20 agonist prepared in an assay buffer was added to the cells and incubated for 90 or 180 min at 37 °C or room temperature. The percent activity of aaptamine was calculated following this formula: % modulation = 100% × ((mean RLU of test sample − mean RLU of EC20 control)/(mean RLU of MAX control ligand − mean RLU of EC20 control)).

CXCR3 [3] = molecular target: T1, CXCR3; assay: as above; type: cell-based; conditions: control agonist at EC20
Description: as §3, §4

[4] = PAM mode, read-out: Dose-Response Maximal Response, % Activation
[5] = dose-response, read-out: EC50 (PAM)

ADRB2, sequence (P07550 whole entry): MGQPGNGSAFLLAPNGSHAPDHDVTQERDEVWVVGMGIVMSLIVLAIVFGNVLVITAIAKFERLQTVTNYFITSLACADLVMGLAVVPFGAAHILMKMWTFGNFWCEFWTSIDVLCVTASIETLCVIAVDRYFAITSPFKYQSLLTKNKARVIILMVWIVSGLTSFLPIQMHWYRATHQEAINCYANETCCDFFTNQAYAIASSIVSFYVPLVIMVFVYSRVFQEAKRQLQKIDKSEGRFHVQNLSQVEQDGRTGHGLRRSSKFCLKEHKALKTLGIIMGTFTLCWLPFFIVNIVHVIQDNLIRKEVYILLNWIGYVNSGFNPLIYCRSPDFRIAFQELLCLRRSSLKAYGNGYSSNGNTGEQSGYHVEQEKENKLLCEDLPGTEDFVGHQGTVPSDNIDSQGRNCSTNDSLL
OPRK1, sequence (P41145 whole entry): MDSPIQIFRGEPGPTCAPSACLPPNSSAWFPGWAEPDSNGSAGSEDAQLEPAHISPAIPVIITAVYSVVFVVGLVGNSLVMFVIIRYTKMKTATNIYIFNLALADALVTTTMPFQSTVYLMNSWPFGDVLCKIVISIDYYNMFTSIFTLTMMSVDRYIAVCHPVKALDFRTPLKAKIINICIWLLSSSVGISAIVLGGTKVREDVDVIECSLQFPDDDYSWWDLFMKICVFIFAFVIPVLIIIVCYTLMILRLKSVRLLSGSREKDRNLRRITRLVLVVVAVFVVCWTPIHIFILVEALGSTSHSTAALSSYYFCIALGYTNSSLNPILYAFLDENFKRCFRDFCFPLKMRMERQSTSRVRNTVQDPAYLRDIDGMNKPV
SSTR1, sequence (P30872 whole entry, the tested form may be a part): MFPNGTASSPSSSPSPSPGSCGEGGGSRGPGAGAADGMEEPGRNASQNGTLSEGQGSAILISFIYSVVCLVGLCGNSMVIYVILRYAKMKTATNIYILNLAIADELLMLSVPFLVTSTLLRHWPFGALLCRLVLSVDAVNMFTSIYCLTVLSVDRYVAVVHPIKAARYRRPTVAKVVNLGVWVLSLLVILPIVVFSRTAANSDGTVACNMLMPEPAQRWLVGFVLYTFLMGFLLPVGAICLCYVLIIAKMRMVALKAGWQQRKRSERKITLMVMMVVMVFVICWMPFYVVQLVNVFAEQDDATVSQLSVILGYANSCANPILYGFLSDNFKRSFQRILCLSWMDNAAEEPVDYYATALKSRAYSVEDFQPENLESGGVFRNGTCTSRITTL

Question: Which results are given for `COc1cc2ccnc3c2c(c1OC)NC=C3` [aaptamine]?
Answer: inhibition at 20 µM (SSTR1): -46%; Emax at 20 µM (CXCR3 [1]): 69%; inhibition at 20 µM (OPRK1): -46%; Emax (ADRB2; dose-response analysis, read-out: Dose-Response Maximal Response, % Inhibition): 96.5%; IC50 (ADRB2; dose-response, antagonist mode): 0.2 µM; selectivity for ADRB2 over ADRA2C (ADRB2; from IC50 values): > 50 fold; growth inhibitory activity [2]: inactive; Emax (CCR3; [4]): 33%; EC50 (CCR3; [5]): 16.2 µM; Emax (CXCR3 [3]; [4]): 74.6%; EC50 (CXCR3 [3]; [5]): 31.8 µM
